What was measured:
Aurora-A = target: T1, Aurora-A (Homo sapiens, UniProt O14965); experiment: In vitro Aurora-A kinase inhibition test; format: biochemical
T1 construct: 6 histidine residues, spacer region and rTEV protease cleavage site (pFastBac HTc) (N); made in house; host or cells: Spodoptera frugiperda Sf21 insect cells (baculovirus)
T1 sequence (O14965 1-403): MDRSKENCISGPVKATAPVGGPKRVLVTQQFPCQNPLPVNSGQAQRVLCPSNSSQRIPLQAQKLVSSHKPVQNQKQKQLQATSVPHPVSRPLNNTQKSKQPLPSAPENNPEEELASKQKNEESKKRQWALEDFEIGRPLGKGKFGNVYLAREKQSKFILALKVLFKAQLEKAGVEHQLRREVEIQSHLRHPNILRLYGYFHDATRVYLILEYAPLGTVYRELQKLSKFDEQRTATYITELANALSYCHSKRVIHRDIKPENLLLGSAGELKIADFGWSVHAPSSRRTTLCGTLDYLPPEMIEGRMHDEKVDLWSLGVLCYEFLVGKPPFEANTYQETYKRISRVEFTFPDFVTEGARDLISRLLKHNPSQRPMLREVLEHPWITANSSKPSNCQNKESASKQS

Aurora-B = target: T2, Aurora-B (Homo sapiens, UniProt Q96GD4); experiment: In vitro Aurora-B kinase inhibition test; format: biochemical; conditions: recombinant Aurora-B, [γ33P]ATP, peptide substrate, 60 minutes at room temperature; read-out: concentration giving 50% inhibition of enzyme activity
T2 construct: 6-histidine; made in house; host or cells: Spodoptera frugiperda Sf21 insect cells (baculovirus)
Text: (b) In Vitro Aurora-B Kinase Inhibition Test
This assay determines the ability of a test compound to inhibit serine-threonine kinase activity. DNA encoding Aurora-B may be obtained by total gene synthesis or by cloning. This DNA may then be expressed in a suitable expression system to obtain polypeptide with serine-threonine kinase activity. In the case of Aurora-B, the coding sequence was isolated from cDNA by polymerase chain reaction (PCR) and cloned into the pFastBac system in a manner similar to that described above for Aurora-A (i.e. to direct expression of a 6-histidine tagged Aurora-B protein).
For the large scale expression of Aurora-B kinase activity, Sf21 insect cells were grown at 28° C. in TC100 medium supplemented with 10% foetal calf serum (Viralex) and 0.2% F68 Pluronic (Sigma) on a Wheaton roller rig at 3 r.p.m. When the cell density reached 1.2×10^6 cells ml^−1 they were infected with plaque-pure Aurora-B recombinant virus at a multiplicity of infection of 1 and harvested 48 hours later. All subsequent purification steps were performed at 4° C. […]

SW620 = experiment: In vitro cell proliferation assay (BrdU incorporation); format: cell-based; conditions: Homo sapiens, SW-620; SW620, 48 hours with compound, 2 hour BrdU labelling; read-out: active at (concentration giving 50% inhibition of BrdU incorporation)
Text: (c) In Vitro Cell Proliferation Assay
This and other assays can be used to determine the ability of a test compound to inhibit the growth of adherent mammalian cell lines, for example the human tumour cell line SW620 (ATCC CCL-227). This assay determines the ability of at test compound to inhibit the incorporation of the thymidine analogue, 5′-bromo-2′-deoxy-uridine (BrdU) into cellular DNA. SW620 or other adherent cells were typically seeded at 1×10^5 cells per well in L-15 media (GIBCO) plus 5% foetal calf serum, 1% L-glutamine (100 μl/well) in 96 well tissue culture treated 96 well plates (Costar) and allowed to adhere overnight. […] The optical density of the wells was then determined at 690 nm wavelength using a Titertek Multiscan plate reader. […]

SW620 cells = experiment: In vitro cell cycle analysis assay; format: cell-based, human; conditions: 24 hours with compound, DNA content by FACS
Method: (d) In Vitro Cell Cycle Analysis Assay
This assay determines the ability of a test compound to arrest cells in specific phases of the cell cycle. Many different mammalian cell lines could be used in this assay and SW620 cells are included here as an example. SW620 cells were seeded at 7×10^5 cells per T25 flask (Costar) in 5 ml L-15 (5% FCS, 1% L-glutamine). Flasks were then incubated overnight in a humidified 37° C. incubator with 5% CO2. The following day, 5 μl of L-15 (5% FCS, 1% L-glutamine) carrying the appropriate concentration of test compound solubilised in DMSO was added to the flask. A no compound control treatments was also included (0.5% DMSO). The cells were then incubated for a defined time (24 hours) with compound. […]
Each sample was then syringed 10 times using 21-guage needle. The samples were then transferred to LPS tubes and DNA content per cell analysed by Fluorescence activated cell sorting (FACS) using a FACScan flow cytometer (Becton Dickinson). Typically 30,000 events were counted and recorded using CellQuest v1.1 software (Verity Software). Cell cycle distribution of the population was calculated using Modfit software (Verity Software) and expressed as percentage of cells with 2N (G0/G1), 2N-4N (S phase) and with 4N (G2/M) DNA content.

T2 sequence (Q96GD4 whole entry): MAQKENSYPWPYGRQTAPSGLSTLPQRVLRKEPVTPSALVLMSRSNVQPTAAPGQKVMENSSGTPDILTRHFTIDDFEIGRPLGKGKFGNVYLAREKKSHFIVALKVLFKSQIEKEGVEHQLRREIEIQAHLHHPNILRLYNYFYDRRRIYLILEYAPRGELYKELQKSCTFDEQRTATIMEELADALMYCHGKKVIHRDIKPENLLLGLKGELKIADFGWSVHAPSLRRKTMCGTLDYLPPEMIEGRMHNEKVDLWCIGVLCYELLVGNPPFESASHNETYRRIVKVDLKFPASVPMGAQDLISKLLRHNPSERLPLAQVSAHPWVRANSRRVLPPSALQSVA

Q: COc1cc2c(Nc3ncc(CC(=O)Nc4cccc(F)c4)s3)ncnc2cc1OCCCN1CCC[C@@H]1COP(=O)(O)O [Compound 2, ((2R)-1-(3-((4-((5-(2-((3-fluorophenyl)amino)-2-oxoethyl)-1,3-thiazol-2-yl)amino)-6-methoxyquinazolin-7-yl)oxy)propyl)pyrrolidin-2-yl)methyl dihydrogen phosphate] was tested. Which IC50 (Aurora-A) did it give?
A: The IC50 was 10.2 nM.

Q: What about the IC50 (Aurora-B) of the same compound?
A: Its IC50 is 9 nM.

Q: And the IC50 (SW620)?
A: The IC50 was 6 nM.

Q: What about the “active at (cell cycle analysis, arrest of cells in specific phases)” value (SW620 cells) of the same compound?
A: The value was 20 nM.

— patent US7407946B2, “Quinazoline compounds” (AstraZeneca AB, priority 2002, dated 2008)
